Measurements as given in the NIST ThermoML archive (doi:10.1016/j.jct.2016.10.047).
± gives the expanded uncertainty stated by the source.

Experiment: refractive index (other wavelength) (dimensionless); xn = mol fraction of the nth substance listed
Settings: 94 kPa, Liquid, Wavelength=632.8 nm, minimum deviation method

CCCCCCCC[n+]1ccn(C)c1.F[P-](F)(F)(F)(F)F [1-octyl-3-methylimidazolium hexafluorophosphate] + CC(C)O
Settings | refractive index
298.19 K, x1 = 1 | 1.4215 ± 0.0003
300.2 K, x1 = 1 | 1.421 ± 0.0003
302.19 K, x1 = 1 | 1.4204 ± 0.0003
304.2 K, x1 = 1 | 1.4199 ± 0.0003
306.22 K, x1 = 1 | 1.4193 ± 0.0003
307.22 K, x1 = 0.5 | 1.4091 ± 0.0003
307.22 K, x1 = 0.8 | 1.4159 ± 0.0003
307.28 K, x1 = 0.901 | 1.4177 ± 0.0003
307.29 K, x1 = 0.601 | 1.4119 ± 0.0003
307.3 K, x1 = 0.4 | 1.4056 ± 0.0003
307.3 K, x1 = 0.699 | 1.4141 ± 0.0003
307.41 K, x1 = 0.3 | 1.4009 ± 0.0003
308.19 K, x1 = 0.699 | 1.4138 ± 0.0003
308.21 K, x1 = 0.5 | 1.4088 ± 0.0003
308.21 K, x1 = 0.601 | 1.4116 ± 0.0003
308.23 K, x1 = 0.901 | 1.4174 ± 0.0003
308.24 K, x1 = 1 | 1.4188 ± 0.0003
308.25 K, x1 = 0.8 | 1.4156 ± 0.0003
308.29 K, x1 = 0.4 | 1.4053 ± 0.0003
308.4 K, x1 = 0.3 | 1.4006 ± 0.0003
309.22 K, x1 = 0.5 | 1.4085 ± 0.0003
309.24 K, x1 = 0.601 | 1.4113 ± 0.0003
309.24 K, x1 = 0.8 | 1.4154 ± 0.0003
309.25 K, x1 = 0.901 | 1.4171 ± 0.0003
309.27 K, x1 = 0.699 | 1.4135 ± 0.0003
309.35 K, x1 = 0.4 | 1.405 ± 0.0003
309.39 K, x1 = 0.3 | 1.4003 ± 0.0003
309.47 K, x1 = 0.2 | 1.3938 ± 0.0003
310.24 K, x1 = 0.601 | 1.411 ± 0.0003
310.25 K, x1 = 0.5 | 1.4082 ± 0.0003
310.25 K, x1 = 0.8 | 1.4151 ± 0.0003
310.25 K, x1 = 1 | 1.4183 ± 0.0003
310.31 K, x1 = 0.699 | 1.4132 ± 0.0003
310.34 K, x1 = 0.901 | 1.4168 ± 0.0003
310.36 K, x1 = 0.4 | 1.4047 ± 0.0003
310.42 K, x1 = 0.3 | 1.3999 ± 0.0003
310.45 K, x1 = 0.2 | 1.3934 ± 0.0003
310.49 K, x1 = 0.1 | 1.3838 ± 0.0003
311.23 K, x1 = 0.601 | 1.4107 ± 0.0003
311.24 K, x1 = 0.5 | 1.4079 ± 0.0003
311.25 K, x1 = 0.699 | 1.413 ± 0.0003
311.25 K, x1 = 0.901 | 1.4166 ± 0.0003
311.26 K, x1 = 0.8 | 1.4148 ± 0.0003
311.36 K, x1 = 0.4 | 1.4044 ± 0.0003
311.46 K, x1 = 0.3 | 1.3996 ± 0.0003
311.48 K, x1 = 0.2 | 1.3931 ± 0.0003
311.5 K, x1 = 0.1 | 1.3834 ± 0.0003
312.22 K, x1 = 0.8 | 1.4146 ± 0.0003
312.24 K, x1 = 0.601 | 1.4104 ± 0.0003
312.24 K, x1 = 1 | 1.4178 ± 0.0003
312.25 K, x1 = 0.5 | 1.4076 ± 0.0003
312.26 K, x1 = 0.699 | 1.4127 ± 0.0003
312.35 K, x1 = 0.901 | 1.4163 ± 0.0003
312.37 K, x1 = 0.4 | 1.4041 ± 0.0003
312.4 K, x1 = 0.3 | 1.3993 ± 0.0003
312.47 K, x1 = 0.2 | 1.3927 ± 0.0003
312.49 K, x1 = 0.1 | 1.383 ± 0.0003
313.21 K, x1 = 0.601 | 1.4101 ± 0.0003
313.25 K, x1 = 0.8 | 1.4143 ± 0.0003
313.26 K, x1 = 0.5 | 1.4073 ± 0.0003
313.26 K, x1 = 0.901 | 1.416 ± 0.0003
313.35 K, x1 = 0.4 | 1.4038 ± 0.0003
313.37 K, x1 = 0.699 | 1.4124 ± 0.0003
313.43 K, x1 = 0.3 | 1.399 ± 0.0003
313.49 K, x1 = 0.2 | 1.3924 ± 0.0003
313.52 K, x1 = 0.1 | 1.3826 ± 0.0003
314.23 K, x1 = 0.601 | 1.4098 ± 0.0003
314.23 K, x1 = 0.699 | 1.4121 ± 0.0003
314.27 K, x1 = 0.5 | 1.407 ± 0.0003
314.29 K, x1 = 0.8 | 1.414 ± 0.0003
314.29 K, x1 = 0.901 | 1.4157 ± 0.0003
314.39 K, x1 = 0.4 | 1.4035 ± 0.0003
314.46 K, x1 = 0.3 | 1.3986 ± 0.0003
314.48 K, x1 = 0.2 | 1.392 ± 0.0003
314.54 K, x1 = 0.1 | 1.3822 ± 0.0003
315.58 K, x1 = 0.1 | 1.3818 ± 0.0003
315.58 K, x1 = 0.2 | 1.3916 ± 0.0003
